From patent US10870647B2, “Imidazopyridine derivative, method for preparing same, and pharmaceutical composition containing same as active ingredient for preventing or treating cancer” (DAEGU-GYEONGBUK MEDICAL INNOVATION FOUNDATION, priority 2016, dated 2020) come the findings set out here.

Holding throughout (assay): Kinase selectivity, scanMAX Kinase assay panel (DiscoverX), % control at 1 uM
Assay type in all cases: binding

Test [1] addresses T1, scanMAX Kinase assay panel (Homo sapiens, UniProt Q9UM73, C1156Y).
T1 construct: purchased DiscoverX
The conditions noted are these: ALK (C1156Y); 1 uM; read-out: Percent Control (%). An outline of the steps:
(§1)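 Read-out is percent of control, derived from the signal with compound relative to positive and negative controls: (compound − positive)/(negative − positive) × 100. Each enzyme received test drug at 1 uM in DMSO, and values under 35% count as active.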

The target of test [2] is T2, scanMAX Kinase assay panel (Homo sapiens, UniProt P49760).
T2 construct: purchased DiscoverX
To be noted: CLK2; 1 uM; read-out: Percent Control (%). An outline of the steps: as §1

The target of test [3] is T3, scanMAX Kinase assay panel (Homo sapiens, UniProt Q13554).
T3 construct: purchased DiscoverX
To be noted: CAMK2B; 1 uM; read-out: Percent Control (%). The method in brief: as §1

For test [4], the target named is T4, scanMAX Kinase assay panel (Homo sapiens, UniProt P08581, M1250T).
T4 construct: purchased DiscoverX
To be noted: MET (M1250T); 1 uM; read-out: Percent Control (%). The method in brief:
as §1

Test [5] addresses T5, scanMAX Kinase assay panel (Homo sapiens, UniProt Q52WX2).
T5 construct: purchased DiscoverX
The conditions noted are these: SBK1; 1 uM; read-out: Percent Control (%). An outline of the steps: as §1

Test [6] deals with T6, scanMAX Kinase assay panel (Homo sapiens, UniProt Q16584).
T6 construct: purchased DiscoverX
T6 sequence (Q16584 whole entry): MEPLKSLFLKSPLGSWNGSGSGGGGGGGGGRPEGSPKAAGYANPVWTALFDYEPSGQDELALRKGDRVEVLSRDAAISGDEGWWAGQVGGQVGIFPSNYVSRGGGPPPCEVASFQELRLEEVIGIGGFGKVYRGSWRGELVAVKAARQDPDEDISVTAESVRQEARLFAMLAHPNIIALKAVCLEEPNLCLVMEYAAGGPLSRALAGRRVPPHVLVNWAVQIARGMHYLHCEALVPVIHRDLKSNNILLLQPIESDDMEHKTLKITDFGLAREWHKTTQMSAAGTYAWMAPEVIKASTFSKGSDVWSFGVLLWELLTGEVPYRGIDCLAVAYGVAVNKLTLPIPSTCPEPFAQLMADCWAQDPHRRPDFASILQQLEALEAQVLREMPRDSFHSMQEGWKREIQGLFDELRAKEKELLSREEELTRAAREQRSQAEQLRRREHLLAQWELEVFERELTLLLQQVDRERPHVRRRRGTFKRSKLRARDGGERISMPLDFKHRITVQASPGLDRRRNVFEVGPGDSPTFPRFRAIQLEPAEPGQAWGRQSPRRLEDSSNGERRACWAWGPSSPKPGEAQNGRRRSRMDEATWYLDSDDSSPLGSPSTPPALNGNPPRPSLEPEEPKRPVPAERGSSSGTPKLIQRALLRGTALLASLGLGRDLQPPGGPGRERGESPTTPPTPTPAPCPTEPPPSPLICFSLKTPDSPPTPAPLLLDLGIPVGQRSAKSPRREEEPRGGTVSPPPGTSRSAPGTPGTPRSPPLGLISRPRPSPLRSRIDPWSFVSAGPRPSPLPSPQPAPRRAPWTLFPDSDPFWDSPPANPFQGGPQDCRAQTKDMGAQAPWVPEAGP
To be noted: MLK3; 1 uM; read-out: Percent Control (%). An outline of the steps: as §1

In test [7] the target is T7, scanMAX Kinase assay panel (Homo sapiens, UniProt Q9UF33).
T7 construct: purchased DiscoverX
T7 sequence (Q9UF33 23-1036): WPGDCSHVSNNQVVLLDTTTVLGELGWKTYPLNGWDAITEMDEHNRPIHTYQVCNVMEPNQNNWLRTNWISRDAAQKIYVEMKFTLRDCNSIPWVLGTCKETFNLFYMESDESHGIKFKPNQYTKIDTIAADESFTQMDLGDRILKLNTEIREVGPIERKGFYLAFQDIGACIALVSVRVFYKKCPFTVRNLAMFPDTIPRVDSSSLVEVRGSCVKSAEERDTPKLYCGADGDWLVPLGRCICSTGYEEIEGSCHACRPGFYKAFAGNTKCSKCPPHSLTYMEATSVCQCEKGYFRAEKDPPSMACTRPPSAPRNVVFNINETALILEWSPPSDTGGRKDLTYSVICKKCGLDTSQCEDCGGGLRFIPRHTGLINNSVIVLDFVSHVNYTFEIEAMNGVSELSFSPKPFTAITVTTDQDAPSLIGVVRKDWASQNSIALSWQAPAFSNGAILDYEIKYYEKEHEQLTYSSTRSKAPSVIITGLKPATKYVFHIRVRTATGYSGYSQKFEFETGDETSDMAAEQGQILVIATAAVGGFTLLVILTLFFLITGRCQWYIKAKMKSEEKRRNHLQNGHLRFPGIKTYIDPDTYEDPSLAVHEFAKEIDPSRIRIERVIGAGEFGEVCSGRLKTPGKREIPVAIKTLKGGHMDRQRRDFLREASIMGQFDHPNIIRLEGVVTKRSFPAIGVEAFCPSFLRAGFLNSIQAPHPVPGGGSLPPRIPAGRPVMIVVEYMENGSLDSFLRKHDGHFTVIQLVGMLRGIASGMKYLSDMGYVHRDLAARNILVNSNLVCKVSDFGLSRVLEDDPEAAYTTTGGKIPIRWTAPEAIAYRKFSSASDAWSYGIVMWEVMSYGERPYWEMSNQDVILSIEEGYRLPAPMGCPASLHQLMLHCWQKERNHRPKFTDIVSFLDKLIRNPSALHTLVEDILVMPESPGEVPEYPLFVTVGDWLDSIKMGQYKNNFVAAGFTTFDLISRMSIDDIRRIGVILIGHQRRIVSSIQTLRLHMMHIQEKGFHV
To be noted: EPHA6; 1 uM; read-out: Percent Control (%). The method in brief:
as §1

The target in test [8] is T8, scanMAX Kinase assay panel (Homo sapiens, UniProt Q14004).
T8 construct: purchased DiscoverX
T8 sequence (Q14004 whole entry): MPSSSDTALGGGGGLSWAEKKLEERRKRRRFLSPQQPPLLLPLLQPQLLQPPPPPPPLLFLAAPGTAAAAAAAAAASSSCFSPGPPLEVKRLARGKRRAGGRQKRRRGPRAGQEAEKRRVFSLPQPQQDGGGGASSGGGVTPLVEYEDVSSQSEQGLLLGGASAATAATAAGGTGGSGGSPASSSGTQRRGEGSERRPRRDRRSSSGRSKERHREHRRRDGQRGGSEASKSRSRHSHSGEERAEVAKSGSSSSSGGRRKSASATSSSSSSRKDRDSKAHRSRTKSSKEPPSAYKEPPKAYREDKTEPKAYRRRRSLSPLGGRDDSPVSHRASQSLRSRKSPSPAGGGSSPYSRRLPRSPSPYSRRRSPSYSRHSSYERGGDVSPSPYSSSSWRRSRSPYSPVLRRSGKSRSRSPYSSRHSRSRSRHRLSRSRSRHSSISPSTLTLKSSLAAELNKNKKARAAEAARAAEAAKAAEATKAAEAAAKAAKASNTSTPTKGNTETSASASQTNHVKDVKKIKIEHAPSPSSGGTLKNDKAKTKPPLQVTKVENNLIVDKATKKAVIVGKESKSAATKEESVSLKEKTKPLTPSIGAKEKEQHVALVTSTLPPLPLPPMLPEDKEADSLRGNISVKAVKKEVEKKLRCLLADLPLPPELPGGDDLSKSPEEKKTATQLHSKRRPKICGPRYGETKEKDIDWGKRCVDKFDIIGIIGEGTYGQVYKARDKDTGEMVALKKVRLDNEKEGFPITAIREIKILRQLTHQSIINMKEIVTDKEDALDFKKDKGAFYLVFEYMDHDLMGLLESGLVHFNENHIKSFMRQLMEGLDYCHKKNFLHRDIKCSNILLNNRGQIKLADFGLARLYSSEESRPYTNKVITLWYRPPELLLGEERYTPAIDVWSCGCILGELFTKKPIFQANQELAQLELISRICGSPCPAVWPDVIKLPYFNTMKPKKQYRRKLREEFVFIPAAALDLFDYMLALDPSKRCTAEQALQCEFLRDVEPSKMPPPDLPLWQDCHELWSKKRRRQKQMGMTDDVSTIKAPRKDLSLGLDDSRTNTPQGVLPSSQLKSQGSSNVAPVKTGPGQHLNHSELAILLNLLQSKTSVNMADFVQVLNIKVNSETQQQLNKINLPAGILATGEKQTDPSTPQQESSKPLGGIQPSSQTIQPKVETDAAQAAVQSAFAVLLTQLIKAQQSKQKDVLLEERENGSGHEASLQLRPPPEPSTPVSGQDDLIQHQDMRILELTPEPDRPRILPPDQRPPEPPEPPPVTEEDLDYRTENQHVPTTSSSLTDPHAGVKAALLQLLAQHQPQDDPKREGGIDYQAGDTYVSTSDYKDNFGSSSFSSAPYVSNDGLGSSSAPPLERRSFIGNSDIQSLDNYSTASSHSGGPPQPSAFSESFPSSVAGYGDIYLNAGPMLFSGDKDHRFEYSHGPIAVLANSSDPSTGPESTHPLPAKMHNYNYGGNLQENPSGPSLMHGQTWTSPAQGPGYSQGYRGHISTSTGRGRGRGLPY
The conditions noted are these: CDC2L5; 1 uM; read-out: Percent Control (%). The method in brief:
as §1

In test [9] the target is T9, scanMAX Kinase assay panel (Homo sapiens, UniProt P42338).
T9 construct: purchased DiscoverX
T9 sequence (P42338 whole entry): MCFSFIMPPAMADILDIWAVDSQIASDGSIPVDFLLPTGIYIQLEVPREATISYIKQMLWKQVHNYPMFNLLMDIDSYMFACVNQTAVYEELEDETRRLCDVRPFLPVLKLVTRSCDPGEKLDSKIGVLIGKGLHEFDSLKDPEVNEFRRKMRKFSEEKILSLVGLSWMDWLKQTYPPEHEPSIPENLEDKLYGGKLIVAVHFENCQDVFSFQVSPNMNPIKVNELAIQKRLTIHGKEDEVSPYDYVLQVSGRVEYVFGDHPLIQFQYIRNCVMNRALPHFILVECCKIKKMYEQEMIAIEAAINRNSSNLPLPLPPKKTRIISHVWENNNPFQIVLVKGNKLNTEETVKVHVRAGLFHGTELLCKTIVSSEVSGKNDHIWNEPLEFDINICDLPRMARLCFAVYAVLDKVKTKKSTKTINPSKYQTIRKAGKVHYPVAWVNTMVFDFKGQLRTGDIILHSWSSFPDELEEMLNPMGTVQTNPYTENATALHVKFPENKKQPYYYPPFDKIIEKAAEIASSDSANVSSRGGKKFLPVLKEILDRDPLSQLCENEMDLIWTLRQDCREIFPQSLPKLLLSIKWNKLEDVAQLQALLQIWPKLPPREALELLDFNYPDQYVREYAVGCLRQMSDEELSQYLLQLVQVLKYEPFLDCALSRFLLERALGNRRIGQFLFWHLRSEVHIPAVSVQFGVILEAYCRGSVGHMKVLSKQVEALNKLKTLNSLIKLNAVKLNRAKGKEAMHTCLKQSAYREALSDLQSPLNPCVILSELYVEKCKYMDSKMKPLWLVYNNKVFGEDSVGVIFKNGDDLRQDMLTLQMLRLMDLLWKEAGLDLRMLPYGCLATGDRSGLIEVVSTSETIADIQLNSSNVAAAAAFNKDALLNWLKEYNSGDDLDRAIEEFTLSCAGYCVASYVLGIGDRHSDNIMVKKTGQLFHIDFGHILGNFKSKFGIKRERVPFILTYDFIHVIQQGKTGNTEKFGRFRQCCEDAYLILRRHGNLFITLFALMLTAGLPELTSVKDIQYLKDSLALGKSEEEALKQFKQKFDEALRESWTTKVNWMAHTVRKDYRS
To be noted: PIK3CB; 1 uM; read-out: Percent Control (%). An outline of the steps: as §1

The target of test [10] is T10, scanMAX Kinase assay panel (Homo sapiens, UniProt Q02763).
T10 construct: purchased DiscoverX
T10 sequence (Q02763 23-1124): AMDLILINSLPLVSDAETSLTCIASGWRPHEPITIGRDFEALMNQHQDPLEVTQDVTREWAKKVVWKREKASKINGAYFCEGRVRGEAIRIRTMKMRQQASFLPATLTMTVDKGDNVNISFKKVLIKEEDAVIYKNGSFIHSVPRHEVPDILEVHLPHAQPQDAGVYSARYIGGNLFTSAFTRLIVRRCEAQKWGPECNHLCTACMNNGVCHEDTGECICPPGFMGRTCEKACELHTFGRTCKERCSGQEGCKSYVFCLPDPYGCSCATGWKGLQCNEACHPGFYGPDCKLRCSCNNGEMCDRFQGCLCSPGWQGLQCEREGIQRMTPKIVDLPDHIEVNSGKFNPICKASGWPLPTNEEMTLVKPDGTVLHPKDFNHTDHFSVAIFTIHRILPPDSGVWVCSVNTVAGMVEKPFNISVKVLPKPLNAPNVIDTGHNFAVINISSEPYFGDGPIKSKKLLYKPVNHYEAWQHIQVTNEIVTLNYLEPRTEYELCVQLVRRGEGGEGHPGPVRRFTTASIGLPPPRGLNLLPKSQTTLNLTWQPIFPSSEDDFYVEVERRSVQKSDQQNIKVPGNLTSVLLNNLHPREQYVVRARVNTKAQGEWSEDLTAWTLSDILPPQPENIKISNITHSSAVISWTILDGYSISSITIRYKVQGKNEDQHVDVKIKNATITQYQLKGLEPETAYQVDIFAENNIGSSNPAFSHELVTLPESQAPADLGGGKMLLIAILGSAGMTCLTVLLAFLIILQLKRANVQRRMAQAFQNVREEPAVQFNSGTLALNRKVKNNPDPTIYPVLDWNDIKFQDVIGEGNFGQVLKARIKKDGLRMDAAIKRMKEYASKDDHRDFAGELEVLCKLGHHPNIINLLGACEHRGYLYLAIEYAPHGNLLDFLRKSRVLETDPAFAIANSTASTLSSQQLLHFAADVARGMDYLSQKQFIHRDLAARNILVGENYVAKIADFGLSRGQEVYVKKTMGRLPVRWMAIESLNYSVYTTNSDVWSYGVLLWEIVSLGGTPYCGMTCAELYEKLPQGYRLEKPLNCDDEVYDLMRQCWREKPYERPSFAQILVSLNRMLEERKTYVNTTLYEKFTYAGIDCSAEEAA
The conditions noted are these: TIE2; 1 uM; read-out: Percent Control (%). An outline of the steps:
as §1

T5 sequence (Q52WX2 whole entry): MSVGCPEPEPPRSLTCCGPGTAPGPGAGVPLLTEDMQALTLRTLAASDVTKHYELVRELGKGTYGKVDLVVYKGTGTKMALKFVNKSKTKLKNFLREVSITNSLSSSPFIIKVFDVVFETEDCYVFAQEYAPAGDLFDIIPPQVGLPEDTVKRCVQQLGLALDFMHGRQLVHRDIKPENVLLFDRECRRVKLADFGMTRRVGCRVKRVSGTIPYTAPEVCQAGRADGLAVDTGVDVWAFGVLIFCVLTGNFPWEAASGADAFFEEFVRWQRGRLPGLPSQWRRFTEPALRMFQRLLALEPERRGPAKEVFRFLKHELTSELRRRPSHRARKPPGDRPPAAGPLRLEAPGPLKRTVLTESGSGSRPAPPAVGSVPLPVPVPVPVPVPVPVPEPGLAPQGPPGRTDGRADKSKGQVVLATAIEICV

Regarding `Cc1ccc(C(=O)Nc2ccc(CN3CCN(C)CC3)c(C(F)(F)F)c2)cc1C#Cc1cnc2c(Nc3cnn(C)c3)cccn12` [Example 1, 4-methyl-3-((8-((1-methyl-1H-pyrazol-4-yl)amino)imidazo[1,2-a]pyridin-3-yl)ethynyl)-N-(4-((4-methylpiperazin-1-yl)methyl)-3-(trifluoromethyl)phenyl)benzamide], the remaining binding at 1 µM was determined as 76% in test [1]; 64% in test [2]; 76% in [3]; 32% in test [4]; 89% in test [5]; 1% in test [6]. Further, the remaining binding at 1 µM in [7] is 2%; in test [8], 5%; in [9] it was 92%; in [10], 0%.
`Cc1cn(-c2cc(NC(=O)c3ccc(C)c(C#Cc4cnc5c(Nc6cnn(C)c6)cccn45)c3)cc(C(F)(F)F)c2)cn1` [Example 12, 4-methyl-N-(3-(4-methyl-1H-imidazol-1-yl)-5-(trifluoromethyl)phenyl)-3-((8-((1-methyl-1H-pyrazol-4-yl)amino)imidazo[1,2-a]pyridin-3-yl)ethynyl)benzamide]: the remaining binding at 1 µM in test [1] was 100%; in [2] it was 91%; in test [3] it was 96%; in [4] it was 28%; in [5] it was 94%; in test [6], 14%. Further, the remaining binding at 1 µM was determined as 19% in [7], 27% in [8], 100% in test [9] and 0% in test [10].
Regarding `Cc1ccc(NC(=O)C2(C(=O)Nc3ccc(F)cc3)CC2)cc1C#Cc1cnc2c(Nc3cnn(C(C)C)c3)cccn12` [Example 78], the remaining binding at 1 µM came to 100% in test [1]; 100% in [2]; 100% in test [3]; 91% in [4]; 100% in test [5]; 94% in [6]. Besides, the remaining binding at 1 µM in test [7] was found to be 90%; in [8], 100%; in [9] it was 100%; in test [10], 16%.
